Measured values as given in PubChem BioAssay AID330 (DTP/NCI, 2004).
Values joined by “and” are separate entries in the source; they are usually repeats but may differ in a detail not shown here. Equal entries are not always repeated. Inconclusive results and toxic doses are left out. Rule for the calls: active = survival T/C of 150% or more; inactive = T/C below 125% in these data.

Tested on: P388 leukemia ip, CD2F1 mice, survival T/C
Test: NCI In Vivo Anticancer Drug Screen. Data for tumor model P388 Leukemia (intraperitoneal) in CD2F1 (CDF1) mice
Details: endpoint: median survival time, higher = longer survival
How it was run: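 Mice carrying the transplanted tumor received test compound or vehicle. Survival was recorded in each group, and the value is the treated-group measurement divided by that of the vehicle-treated control group.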

[1] = dose: 50.0 mg/kg/injection, schedule: Q01DX005 (ip), vehicle: saline with Tween-80
[2] = dose: 100.0 mg/kg/injection, schedule: Q01DX005 (ip), vehicle: saline with Tween-80
[3] = dose: 60.0 mg/kg/injection, schedule: Q01DX005 (ip), vehicle: saline with Tween-80
[4] = dose: 120.0 mg/kg/injection, schedule: Q01DX005 (ip), vehicle: saline with Tween-80
[5] = dose: 240.0 mg/kg/injection, schedule: Q01DX005 (ip), vehicle: saline with Tween-80
[6] = dose: 50.0 mg/kg/injection, schedule: Q01DX005 (ip), vehicle: Klucel (hydroxypropylcellulose) (HPC)
[7] = dose: 100.0 mg/kg/injection, schedule: Q01DX005 (ip), vehicle: Klucel (hydroxypropylcellulose) (HPC)
[8] = dose: 200.0 mg/kg/injection, schedule: Q01DX005 (ip), vehicle: Klucel (hydroxypropylcellulose) (HPC)
[9] = dose: 50.0 mg/kg/injection, schedule: Q01DX009 (ip), vehicle: saline with Tween-80
[10] = dose: 100.0 mg/kg/injection, schedule: Q01DX009 (ip), vehicle: saline with Tween-80
[11] = dose: 200.0 mg/kg/injection, schedule: Q01DX009 (ip), vehicle: saline with Tween-80

Measured: T/C

Cc1[nH]c(=O)[nH]c(=O)c1CCSSCCc1c(C)[nH]c(=O)[nH]c1=O
inactive: [1] 102 % of control | [2] 100 % of control | dose: 200.0 mg/kg/injection, schedule: Q01DX005 (ip), vehicle: saline with Tween-80 98 % of control

CN(C)CCOc1ccc2c(c1)CCC2=O
inactive: dose: 50.0 mg/kg/injection, schedule: Q01DX009 (ip), vehicle: saline 108 % of control | dose: 100.0 mg/kg/injection, schedule: Q01DX009 (ip), vehicle: saline 118 % of control | dose: 200.0 mg/kg/injection, schedule: Q01DX009 (ip), vehicle: saline 108 % of control

CCO/C=C1/N=C(c2ccc(OC)c(OC)c2)OC1=O
inactive: [3] 110 % of control

CC1c2ccoc2CC2C1C(O)C(O)C1C(C)(C)CCCC21C (configuration not stated)
inactive: dose: 100.0 mg/kg/injection, schedule: Q04DX002 (ip), vehicle: suspension in saline 106 % of control | dose: 200.0 mg/kg/injection, schedule: Q04DX002 (ip), vehicle: suspension in saline 106 % of control | dose: 400.0 mg/kg/injection, schedule: Q04DX002 (ip), vehicle: suspension in saline 98 % of control

OC1(C(F)(F)F)NN2C=CC=CC2=NO1 (configuration not stated)
inactive: [3] 95 % of control | [4] 96 % of control | [5] 100 % of control

CC(=Nc1ccc(F)cc1)C1C(=O)c2ccccc2C1=O
inactive: [6] 100 % of control | [7] 100 % of control | [8] 100 % of control

CC(C)(C)C1CCN(Cc2ccccc2)CC1
inactive: dose: 25.0 mg/kg/injection, schedule: Q01DX005 (ip), vehicle: saline with Tween-80 103 % of control | [1] 103 % of control | [2] 100 % of control

COC(=O)C1=C(\N2CCOCC2)CCCCC/C=C\1C(=O)OC
inactive: dose: 25.0 mg/kg/injection, schedule: Q01DX009 (ip), vehicle: saline with Tween-80 99 % of control and 106 % of control | [9] 100 % of control and 103 % of control | [10] 103 % of control and 107 % of control | [11] 88 % of control and 95 % of control

CCSc1nc2ccc(NC(=O)CCC(=O)O)cc2s1
inactive: dose: 50.0 mg/kg/injection, schedule: Q01DX009 (ip), vehicle: Klucel (hydroxypropylcellulose) (HPC) 103 % of control | dose: 100.0 mg/kg/injection, schedule: Q01DX009 (ip), vehicle: Klucel (hydroxypropylcellulose) (HPC) 102 % of control | dose: 200.0 mg/kg/injection, schedule: Q01DX009 (ip), vehicle: Klucel (hydroxypropylcellulose) (HPC) 101 % of control

Cc1ccc2c(=O)ccn(Cc3ccccc3)c2n1
inactive: dose: 100.0 mg/kg/injection, schedule: Q01DX001 (ip), vehicle: saline 101 % of control | dose: 200.0 mg/kg/injection, schedule: Q01DX001 (ip), vehicle: saline 103 % of control | dose: 400.0 mg/kg/injection, schedule: Q01DX001 (ip), vehicle: saline 92 % of control

O=C(Nc1ccccc1)Nc1nncs1
inactive: dose: 1.56 mg/kg/injection, schedule: Q01DX009 (ip), vehicle: distilled water + Tween-80 104 % of control | dose: 3.13 mg/kg/injection, schedule: Q01DX009 (ip), vehicle: distilled water + Tween-80 109 % of control | dose: 6.25 mg/kg/injection, schedule: Q01DX009 (ip), vehicle: distilled water + Tween-80 103 % of control | dose: 12.5 mg/kg/injection, schedule: Q01DX009 (ip), vehicle: distilled water + Tween-80 104 % of control | dose: 25.0 mg/kg/injection, schedule: Q01DX009 (ip), vehicle: distilled water + Tween-80 104 % of control

C1=C2NNC(c3ccccc3)=C(c3ccccc3)C2=CCC1 (tested in a mixture with another compound)
inactive: [3] 96 % of control | [4] 92 % of control | [5] 91 % of control

CC(C)(C)c1ccc(C2=NNC(C(F)(F)F)=NN2)cc1
inactive: [9] 110 % of control | [10] 104 % of control | [11] 119 % of control

NC(=O)c1c(-c2ccccc2)cn2c(C(=O)O)ccnc12
inactive: [3] 98 % of control | [4] 98 % of control | [5] 102 % of control

O=C(O)CNC(=O)OCC1c2ccccc2-c2ccccc21
inactive: [6] 100 % of control | [7] 95 % of control | [8] 100 % of control

Nc1nc(C2CCCCC2)c(I)c(=O)[nH]1
inactive: [6] 101 % of control | [7] 103 % of control | [8] 97 % of control

O=C1NC(=O)c2c3ccc(c21)CCc1ccc(c2c1C(=O)NC2=O)CC3
inactive: [9] 97 % of control | [10] 92 % of control | [11] 92 % of control
